# Measured values from patent publication US20220288028A1, “A THERAPEUTIC APPROACH FOR TREATING NON-INFECTIOUS OCULAR IMMUNOINFLAMMATORY DISORDERS” (The Schepens Eye Research Institute, Inc., priority 2019, published 2022).
# Where no end group is shown, it is not given here.
# What was measured:
# Foxp3^+CD4^+ Tregs = test: Isolated Tregs co-cultured with SP, with or without NK1R antagonist (recovered Tregs); type: cell-based, mice; details: SP at 0.1, 1, and 10 nM in vitro; tested 0.01-10 nM
# Protocol: FIGS. 3A and 3B show the results of the in vitro effect of SP on Treg cells. The normal functional Foxp3^+CD4^+ Tregs were isolated from naive mice and co-cultured with different doses of SP, e.g., at 0.01, 0.1, 1, and 10 nM in vitro. […] On the contrary, addition of the NK1R antagonist prevented the loss of Tregs (FIG. 3B).
# [1] = tested on: bone marrow-derived dendritic cells (BMDCs); test: BMDC maturation (MHC II expression) in the presence of SP, flow cytometry; type: cell-based, C57BL/6 mice; details: SP 25, 50 and 100 μg/mL for 18 hours; p=0.03 and p=0.02 for 50 and 100 μg/mL vs. vehicle
# Protocol: Generation of Bone Marrow-Derived Dendritic Cells (BMDCs): Long bones (femur and tibia) were harvested from C57BL/6 mice and cell suspension was prepared. Cells were incubated with Red blood cell (RBC) lysis buffer (Sigma-Aldrich, St. Louis, Mo.) at 37° C. for 10 minutes. […]
# Single Cell Suspension Preparation and Flow Cytometry: Submandibular and cervical draining lymph nodes (DLNs) were harvested and single cell suspensions were prepared. […] Stained cells were examined using an LSRII Flow Cytometer (BD Biosciences, Franklin Lakes, N.J., USA), and data were analyzed using commercial Summit software (Summit v4.3; Dako Colorado, Inc., Fort Collins, Colo.).
# Mature APCs play a key role in the activation of THh17 cells and the autoimmune response in DED (Barabino S. et al. Prog Retin Eye Res 2012, 31:271-85; Stevenson W, Chauhan S K, Dana R: Dry eye disease: an immune-mediated ocular surface disorder. Arch Ophthalmol 2012, 130:90-100; Hamrah P, et al. Invest Ophthalmol Vis Sci 2003, 44:581-9). Given that increased SP levels in response to desiccating stress was observed, the effect of SP on maturation of APCs was next evaluated. […]
# CD4^+CD25^+Foxp3^+ Tregs = test: Tregs co-cultured with SP with or without Spantide I: phenotype, cytokines, suppression of effector T cell proliferation; type: cell-based, C57BL/6 mice
# Protocol: CD4^+CD25^+Foxp3^+ Tregs were isolated from draining lymph nodes (DLN) of naïve female C57BL/6 mice.
# Isolated Tregs were co-cultured with SP (1 μM) with or without Spantide I (10 μM) for 48 hours. Phenotype of Tregs was evaluated by flow cytometry, and the capacity of Tregs to suppress effector T cell proliferation was investigated.
# [2] = tested on: corneal epithelial wound healing; details: topical application, diabetic mice; cited from earlier work
substance,measurement,setting,value
"SP: substance P, an 11-amino acid neuropeptide, endogenous ligand of NK1R (RPKPQQFFGLM-NH2; ends and bridges not checked; UniProt P20366 58-68, looked up)",Tregs recovered after co-culture with SP,Foxp3^+CD4^+ Tregs,significantly reduced Tregs
same,mean fluorescence intensity (MFI) of MHC II in BMDCs,[1],significant and dose-dependent increase
same,"expression of inhibitory molecules Foxp3, CTLA4 and PD-1 by Tregs","CD4^+CD25^+Foxp3^+ Tregs; SP 1 μM, 48 hours, in vitro",suppresses the expression
same,secretion of immunoregulatory cytokines (TGFβ and IL-10) by Tregs,"CD4^+CD25^+Foxp3^+ Tregs; SP 1 μM, 48 hours, in vitro",significantly lower levels
same,capacity of Tregs to suppress effector T cell proliferation in vitro,CD4^+CD25^+Foxp3^+ Tregs; Tregs pre-incubated with SP,lower capacity
same,corneal epithelial wound healing,[2],promotes corneal epithelial wound healing
